Data on 34 compounds can be found in patent US20250186391A1, “ORAL COMPLEMENT FACTOR D INHIBITORS” (BioCryst Pharmaceuticals, Inc., priority 2019, published 2025).

Bounds are passed on as bounds.

Chain of Factor D (P00746 26-253): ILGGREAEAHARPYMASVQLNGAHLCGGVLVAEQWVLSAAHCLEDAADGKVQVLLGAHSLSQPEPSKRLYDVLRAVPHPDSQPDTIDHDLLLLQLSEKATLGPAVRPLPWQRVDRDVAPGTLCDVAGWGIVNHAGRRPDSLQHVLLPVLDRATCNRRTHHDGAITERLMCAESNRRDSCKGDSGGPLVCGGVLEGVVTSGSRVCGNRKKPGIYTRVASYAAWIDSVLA

This assay addresses Factor D (Homo sapiens (Human), UniProt P00746). As to the kind of experiment: Factor D esterolytic assay. The assay is classed as biochemical. To be noted: Z-Lys-SBzl substrate, 100 mM HEPES, 500 mM NaCl, pH 7.5, 10% DMSO; tested a minimum of three times; read-out: Measured Ki (IC50) Value for Compounds: IC50. In outline: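 Buffer was 100 mM HEPES, 500 mM NaCl, pH 7.5 with 10% DMSO. Compound and Factor D were combined, then Z-Lys-SBzl (1.29 mM) was added either at once or following room-temperature incubation. Rates came from DTNB colour at 405 nm minus 690 nm over 600 s, with percent inhibition giving IC50 over at least three tests.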
One may read the IC50 as the midpoint of a concentration-inhibition curve. Turning to `Cc1oc2c(cc(-c3cccc(CN)c3)c3occc32)c1COc1ccccc1CC(=O)O` [Compound 233h, 2-(2-((5-(3-(aminomethyl)phenyl)-2-methylbenzo[1,2-b:3,4-b′]difuran-3-yl)methoxy)phenyl)acetic acid], the half-maximal inhibitory concentration (IC50) was < 1 µM.

Regarding `Cc1cccc(CC(=O)O)c1OCc1coc2ccc(-c3cccc(CN)c3)cc12` [Compound 107d, 2-(2-((5-(3-(aminomethyl)phenyl)benzofuran-3-yl)methoxy)-3-methylphenyl)acetic acid], the IC50 is < 1 µM. On to `CC(C)(C)c1oc2ccc(-c3cccc(CN)c3)cc2c1COc1ccccc1CC(=O)O` [Compound 171i, 2-(2-((5-(3-(aminomethyl)phenyl)-2-(tert-butyl)benzofuran-3-yl)methoxy)phenyl)acetic acid], for which the IC50 is < 1 µM. `NCc1cccc(-c2ccc3occ(COc4cc(F)ccc4CC(=O)O)c3c2)c1` [Compound 39f, 2-(2-((5-(3-(aminomethyl)phenyl)benzofuran-3-yl)methoxy)-4-fluorophenyl)acetic acid]: the concentration for half-maximal inhibition (IC50) was < 1 µM.

As to `NCc1cccc(-c2cc(C(O)C(F)(F)F)c3occ(COc4ccccc4CC(=O)O)c3c2)c1` (stereo not shown) [Compound 257h, 2-(2-((5-(3-(aminomethyl)phenyl)-7-(2,2,2-trifluoro-1-hydroxyethyl)benzofuran-3-yl)methoxy)phenyl)acetic acid], the 50% inhibitory concentration (IC50) was < 1 µM.

For `CC(C)n1nc(C(=O)Nc2ccccc2CC(=O)O)c2cc(-c3cccc(CN)c3)ccc21` [Compound 293c, 2-(2-(5-(3-(aminomethyl)phenyl)-1-isopropyl-1H-indazole-3-carboxamido)phenyl)acetic acid], the IC50 is < 1 µM. For `NCc1cc(F)cc(-c2ccc3occ(Cc4cccc(CC(=O)O)c4O)c3c2)c1` [Compound 40d, 2-(3-((5-(3-(aminomethyl)-5-fluorophenyl)benzofuran-3-yl)methyl)-2-hydroxyphenyl)acetic acid], the IC50 lay within 1 to 10 µM.

As to `NCc1cccc(-c2ccc3cccc(COc4ccccc4CC(=O)O)c3c2)c1` [Compound 100d, 2-(2-((7-(3-(aminomethyl)phenyl)naphthalen-1-yl)methoxy)phenyl)acetic acid], the IC50 was < 1 µM. Next, `NCc1cccc(-c2cc3c(COc4ccccc4CC(=O)O)coc3c3occc23)c1` [Compound 229g, 2-(2-((5-(3-(aminomethyl)phenyl)benzo[1,2-b:6,5-b′]difuran-3-yl)methoxy)phenyl)acetic acid]: < 1 µM; `CC(C)n1nc(COc2ccccc2CC(=O)O)c2cc(-c3cc(CN)cc(C4CCN(C)CC4)c3)ccc21` [Compound 333f, 2-(2-((5-(3-(aminomethyl)-5-(1-methylpiperidin-4-yl)phenyl)-1-isopropyl-1H-indazol-3-yl)methoxy)phenyl)acetic acid]: > 10 µM. In the case of `CC(C)n1nc(COc2ccccc2CC(=O)O)c2cc(-c3cc(CN)cc(C4CCOCC4)c3)ccc21` [Compound 332e, 2-(2-((5-(3-(aminomethyl)-5-(tetrahydro-2H-pyran-4-yl)phenyl)-1-isopropyl-1H-indazol-3-yl)methoxy)phenyl)acetic acid], the IC50 is > 10 µM. With `NCc1cc(-c2cc3c(COc4ccccc4CC(=O)O)cccc3o2)ccn1` [Compound 290h, 2-(2-((2-(2-(aminomethyl)pyridin-4-yl)benzofuran-4-yl)methoxy)phenyl)acetic acid], the IC50 was < 1 µM. Next, `COC(=O)c1cc(-c2cccc(CN)c2)c2oc(COc3ccccc3CC(=O)O)cc2c1` [Compound 23c, 2-(2-((7-(3-(aminomethyl)phenyl)-5-(methoxycarbonyl)benzofuran-2-yl)methoxy)phenyl)acetic acid]: < 1 µM; `COc1ccc(CC(=O)O)c(OCc2c(CO)oc3ccc(-c4cccc(CN)c4)cc23)c1` [Compound 214c, 2-(2-((5-(3-(aminomethyl)phenyl)-2-(hydroxymethyl)benzofuran-3-yl)methoxy)-4-methoxyphenyl)acetic acid]: < 1 µM; `COc1ccc(CC(=O)O)c(OCc2coc3c(C)cc(-c4cccc(CN)c4)cc23)c1` [Compound 253c, 2-(2-((5-(3-(aminomethyl)phenyl)-7-methylbenzofuran-3-yl)methoxy)-4-methoxyphenyl)acetic acid]: < 1 µM. Take `CC(C)n1nc(C(Oc2ccccc2CC(=O)O)c2ccccc2)c2cc(-c3cccc(CN)c3)ccc21` (stereo not shown) [Compound 228e, 2-(2-((5-(3-(aminomethyl)phenyl)-1-isopropyl-1H-indazol-3-yl)(phenyl)methoxy)phenyl)acetic acid]: the IC50 was > 10 µM. Consider `NCc1cccc(-c2cc(C(F)F)c3occ(COc4ccccc4CC(=O)O)c3c2)c1` [Compound 262e, 2-(2-((5-(3-(aminomethyl)phenyl)-7-(difluoromethyl)benzofuran-3-yl)methoxy)phenyl)acetic acid], for which the IC50 was < 1 µM. Regarding `COc1ccc(CC(=O)O)c(OCc2c(C(=O)O)sc3ccc(-c4cccc(CN)c4)cc23)c1` [Compound 62c, 5-(3-(aminomethyl)phenyl)-3-((2-(carboxymethyl)-5-methoxyphenoxy)methyl)benzo[b]thiophene-2-carboxylic acid], the IC50 is < 1 µM. As to `CC(C)n1nc(COc2ccccc2CC(=O)O)c2cc(-c3cccc(CN)c3N)ccc21` [Compound 307c, 2-(2-((5-(2-amino-3-(aminomethyl)phenyl)-1-isopropyl-1H-indazol-3-yl)methoxy)phenyl)acetic acid], the IC50 was < 1 µM.

On to `CC(C)c1ccc(CC(=O)O)c(OCc2coc3ccc(-c4cccc(CN)c4)cc23)c1` [Compound 190f, 2-(2-((5-(3-(aminomethyl)phenyl)benzofuran-3-yl)methoxy)-4-isopropylphenyl)acetic acid], for which the IC50 was < 1 µM. As to `COc1ccc(CC(=O)O)c(OCc2c(C(C)C)oc3ccc(-c4cccc(CN)c4)cc23)c1` [Compound 169c, 2-(2-((5-(3-(aminomethyl)phenyl)-2-isopropylbenzofuran-3-yl)methoxy)-4-methoxyphenyl)acetic acid], the IC50 was < 1 µM. With `NCc1cccc(-c2ccc3onc(COc4ccccc4CC(=O)O)c3c2)c1` [Compound 88e, 2-(2-((5-(3-(aminomethyl)phenyl)benzo[d]isoxazol-3-yl)methoxy)phenyl)acetic acid] the figure was < 1 µM.

For the compound `CCn1cc(-c2cc(-c3cccc(CN)c3)cc3c(COc4ccccc4CC(=O)O)coc23)cn1` [Compound 128c, 2-(2-((5-(3-(aminomethyl)phenyl)-7-(1-ethyl-1H-pyrazol-4-yl)benzofuran-3-yl)methoxy)phenyl)acetic acid], the IC50 is < 1 µM. Regarding `NCc1cccc(-c2cc(COc3ccccc3)c3occ(COc4ccccc4CC(=O)O)c3c2)c1` [Compound 92e, 2-(2-((5-(3-(aminomethyl)phenyl)-7-(phenoxymethyl)benzofuran-3-yl)methoxy)phenyl)acetic acid], the 50% inhibitory concentration (IC50) is < 1 µM. Turning to `CCc1oc2ccc(-c3cccc(CN)c3)cc2c1COc1ccccc1CC(=O)O` [Compound 226c, 2-(2-((5-(3-(aminomethyl)phenyl)-2-ethylbenzofuran-3-yl)methoxy)phenyl)acetic acid], the IC50 is < 1 µM. Take `COc1ccc(CC(=O)O)c(OCc2c(C(=O)O)oc3ccc(-c4cccc(CN)c4)cc23)c1` [Compound 61d, 5-(3-(aminomethyl)phenyl)-3-((2-(carboxymethyl)-5-methoxyphenoxy)methyl)benzofuran-2-carboxylic acid]: the IC50 is < 1 µM. With `COc1ccc(CC(=O)O)c(OCc2nn(C)c3ccc(-c4cccc(CN)c4)cc23)c1` [Compound 185c, 2-(2-((5-(3-(aminomethyl)phenyl)-1-methyl-1H-indazol-3-yl)methoxy)-4-methoxyphenyl)acetic acid], the IC50 is < 1 µM. Next, `COc1ccc(CC(=O)O)c(OCc2c(C)oc3ccc(-c4cccc([C@@H](C)N)c4)cc23)c1` [Compound 242b, (R)-2-(2-((5-(3-(1-aminoethyl)phenyl)-2-methylbenzofuran-3-yl)methoxy)-4-methoxyphenyl)acetic acid]: < 1 µM.

In the case of `NCc1cccc(-c2cc3c(COc4ccccc4CC(=O)O)ccc(C4CC4)c3o2)c1` [Compound 291g, 2-(2-((2-(3-(aminomethyl)phenyl)-7-cyclopropylbenzofuran-4-yl)methoxy)phenyl)acetic acid], the IC50 lay in the range of 1 to 10 µM. With `Cn1nc(Nc2ccccc2CC(=O)O)c2cc(-c3cccc(CN)c3)ccc21` [Compound 77d, 2-(2-((5-(3-(aminomethyl)phenyl)-1-methyl-1H-indazol-3-yl)amino)phenyl)acetic acid] the figure was > 10 µM; with `NCc1cccc(-c2cc(CN3CCOCC3)c3occ(COc4ccccc4CC(=O)O)c3c2)c1` [Compound 79h, 2-(2-((5-(3-(aminomethyl)phenyl)-7-(morpholinomethyl)benzofuran-3-yl)methoxy)phenyl)acetic acid], < 1 µM; with `COc1c(CN)cccc1-c1cc(OC)c2occ(COc3ccccc3CC(=O)O)c2c1` [Compound 324d, 2-(2-((5-(3-(aminomethyl)-2-methoxyphenyl)-7-methoxybenzofuran-3-yl)methoxy)phenyl)acetic acid], < 1 µM.

In the case of `NCc1cccc(-c2ccc3oc(C4CC4)c(COc4ccccc4CC(=O)O)c3c2)c1` [Compound 133f, 2-(2-((5-(3-(aminomethyl)phenyl)-2-cyclopropylbenzofuran-3-yl)methoxy)phenyl)acetic acid], the IC50 is < 1 µM. Consider `NCc1cccc(-c2cccc3cc(COc4ccccc4CC(=O)O)oc23)c1` [Compound 19e, 2-(2-((7-(3-(aminomethyl)phenyl)benzofuran-2-yl)methoxy)phenyl)acetic acid], for which the IC50 is < 1 µM.
